These antisense oligonucleotides have a phosphorothioate backbone; sugars and methylation of C are not fully specified.
Also: test concentration or dose not given here.

The first data set addresses GNA11. To be noted: ASO.
Take GTAGCCGGCGCCGTGGAT: the remaining target (mRNA or protein) (fraction of control) was 0.99.
On to CTTGTCCTCCTCCGAGTA, for which the remaining target (mRNA or protein) (fraction of control) turned out to be 0.21.
Same read-out and setting: next, TGTAGAGGATCTTGAGCG: at least 1; TGTTCTCCAGGTCGAAAG: 0.67; AGATGATGTTCTCCAGGT: at least 1.
Regarding GATGAACTCCCGCGCCGC, the remaining target (mRNA or protein) (fraction of control) came out at 0.48.

Another data set has as its target TFRC. Conditions: ASO.
Regarding GTCTGTTTTCTCAGCATT, the remaining target (mRNA or protein) (fraction of control) is at least 1.
AGGAAACCTGCTACATTC displayed a remaining target (mRNA or protein) (fraction of control) of at least 1.
For the sequence ACACTGCTCCCGATAATG, the remaining target (mRNA or protein) (fraction of control) is at least 1.
TATACCTTTACCTCCAAA had a remaining target (mRNA or protein) (fraction of control) of 0.99.
GTTATCGCCATCTACTTG came in with a remaining target (mRNA or protein) (fraction of control) of at least 1.
The sequence TTCTCCACCAAACAAGTT yielded a remaining target (mRNA or protein) (fraction of control) of at least 1.
For the sequence CACTTTGTTCAACTCAGG, the remaining target (mRNA or protein) (fraction of control) is at least 1.
Consider ATCTCAGTGCCAAAAGGA, for which the remaining target (mRNA or protein) (fraction of control) was at least 1.
Take AAGCTGCTGCCTAAAGAC: the remaining target (mRNA or protein) (fraction of control) is at least 1.
Consider AGAGGCAGTTCCCATTAC, for which the remaining target (mRNA or protein) (fraction of control) stood at 0.46.
In turn, TGGGCAAGTTTCAATAGG displayed a remaining target (mRNA or protein) (fraction of control) of at least 1.
Still for that read-out and setting: the figure for AACTGGTTCTCTTTCAAT is 0.95.
CCGAGATGGTGGAAACTG had a remaining target (mRNA or protein) (fraction of control) of at least 1.
Sequence TAGAGTCTGTTTTCCAGT yielded a remaining target (mRNA or protein) (fraction of control) of at least 1.
For TATTGTCAGCATTTTCTT, the remaining target (mRNA or protein) (fraction of control) was at least 1.
The same measure, in the same setting: next, TTTAGCATCAAATGAAGT: at least 1.
TTTAACATCAGGTTTTGT displayed a remaining target (mRNA or protein) (fraction of control) of at least 1.
CGGATGCTTCACATTTTG displayed a remaining target (mRNA or protein) (fraction of control) of at least 1.
The sequence TACCCAAATAAGGATAAT gave a remaining target (mRNA or protein) (fraction of control) of at least 1.
AATTATGGGAAACACTGT: the remaining target (mRNA or protein) (fraction of control) is at least 1.
ATTCTTATCTGGTCAGTG returned a remaining target (mRNA or protein) (fraction of control) of at least 1.
In the case of TCAACCTGGTATCTCCTA, the remaining target (mRNA or protein) (fraction of control) is 0.65.
Still for that read-out and setting: next, TATCTGAGAACATCTGGG: at least 1; CACCCGAACCAGGAATCT: at least 1.
In the case of ATAGCAGATACTTCCACT, the remaining target (mRNA or protein) (fraction of control) came to 0.96.
CATGTCCAAAGAATGAAA showed a remaining target (mRNA or protein) (fraction of control) of 0.95.
As for GTTGTTAGTCTGGAAGTA, the remaining target (mRNA or protein) (fraction of control) worked out at 0.9.
Regarding CTGAAGAGACCCTATGAA, the remaining target (mRNA or protein) (fraction of control) is 0.97.
CTACCCCTTTACAATAGC: the remaining target (mRNA or protein) (fraction of control) worked out at 0.96.

The target in a further data set is TNFRSF1A. Conditions: ASO.
Turning to CACCAGCGGCAGCAGCAG, the remaining target (mRNA or protein) (fraction of control) amounted to 0.79.
In turn, CGCAAACCACCCACTCAG registered a remaining target (mRNA or protein) (fraction of control) of 0.49.
Still for that read-out and setting: next, GCTCCTGCTTGCCCCTGC: 0.57.
The sequence AAAGGCTCAGGGACGAAC returned a remaining target (mRNA or protein) (fraction of control) of 0.58.
In the case of GCCAAGTTTCTATTAGTG, the remaining target (mRNA or protein) (fraction of control) was determined as 0.9.
Same read-out and setting: the figure for TCCCCTCCTCTCTGCTTT is 0.95; for ATCTGAGAAGACTGGGCG it is at least 1.
ACGGTCCCATTGAGGCAG had a remaining target (mRNA or protein) (fraction of control) of 0.66.
On to TTCTCTGGACTGAGGCTC, for which the remaining target (mRNA or protein) (fraction of control) was determined as 0.81.
With AGGAGGGATAAAAGGCAA, the remaining target (mRNA or protein) (fraction of control) stood at 0.78.
For AAAGGCAAAGACCAAAGA, the remaining target (mRNA or protein) (fraction of control) was 0.69.
In turn, GTTAGCACCAAGTAGGCG returned a remaining target (mRNA or protein) (fraction of control) of 0.89.
Still for that read-out and setting: next, CTTACAGTTACTACAGGA: 0.79; AGCGGCAGCAGCAGGTCA: at least 1.
For the sequence GCAGGTCAGGCACGGTGG, the remaining target (mRNA or protein) (fraction of control) was found to be 0.84.
Same read-out and setting: the figure for GTCTGAGGTGGTTTTCTG is 0.66; for TCCTCCAGGCAGCCCAGC it is 0.59; for AGCTGGAGGTGAAGGTGG it is at least 1.
The sequence TCCGTGCTCGCCCCTGCC displayed a remaining target (mRNA or protein) (fraction of control) of 0.81.
Take CATTTGGGCTCAGGGCAG: the remaining target (mRNA or protein) (fraction of control) was determined as 0.91.
On to TCTGAAGCGGTGAAGGAG, for which the remaining target (mRNA or protein) (fraction of control) was at least 1.
For GTTCCTTTGTGGCACTTG, the remaining target (mRNA or protein) (fraction of control) is 0.88.
Same read-out and setting: the figure for ATTATTTTGAGGGTGGAT is at least 1.
On the same count and under the same terms, the figure for GTCAGGCACGGTGGAGAG is at least 1; for TGAAGGTGGAACTGGGCA it is 0.73.
For TTAAACCAATGAAGAGGA, the remaining target (mRNA or protein) (fraction of control) amounted to 0.72.
On to TTTTCACTCCAATAATGC, for which the remaining target (mRNA or protein) (fraction of control) is at least 1.
CACCTGACCCATTTCCTT showed a remaining target (mRNA or protein) (fraction of control) of 0.54.
The sequence TTGTTCCGTGCTCGCCCC showed a remaining target (mRNA or protein) (fraction of control) of 0.59.
The sequence AGGTGGTTTTCTGAAGCG came in with a remaining target (mRNA or protein) (fraction of control) of at least 1.
CTGTCCTCCCACTTCTGA displayed a remaining target (mRNA or protein) (fraction of control) of 0.84.
AGGCCCCATTGTTCCGTG: the remaining target (mRNA or protein) (fraction of control) was at least 1.
With GAAGCCTGGAGTGGGACT, the remaining target (mRNA or protein) (fraction of control) came out at 0.52.
As to TCGATTTCCCACAAACAA, the remaining target (mRNA or protein) (fraction of control) worked out at 0.99.
On to ACTGTGGTGCCTGAGTCC, for which the remaining target (mRNA or protein) (fraction of control) is 0.69.
The sequence CAGTCCGTATCCTGCCCC registered a remaining target (mRNA or protein) (fraction of control) of 0.74.
Sequence CATTTCCTTTCGGCATTT returned a remaining target (mRNA or protein) (fraction of control) of 0.87.
On the same count and under the same terms, next, ACGGTGTTCTGTTTCTCC: 0.93; TAACATTCTCAATCTGGG: at least 1.
TATATTCCCACCAACAGC yielded a remaining target (mRNA or protein) (fraction of control) of 0.75.
In turn, GCAGAGGGCACAGGAGTG gave a remaining target (mRNA or protein) (fraction of control) of 0.76.
Consider GCTTTTCTTACAGTTACT, for which the remaining target (mRNA or protein) (fraction of control) was 0.9.
The same measure, in the same setting: next, TCTTCTCCCTGTCCCCTA: 0.87; GGTACTGGTTCTTCCTGC: 0.86.
As to ATAGCGTCCCTCATCCTC, the remaining target (mRNA or protein) (fraction of control) was 0.66.
As for AGCTGAGGCAGTGTCTGA, the remaining target (mRNA or protein) (fraction of control) was 0.73.
Still for that read-out and setting: next, GCTTGTCCAGGCAGAGGG: 0.82; GGTGACAGTTGAGGGTTG: 0.92.
On to TCCAGGCTTTTCTTACAG, for which the remaining target (mRNA or protein) (fraction of control) was at least 1.
Turning to GCAGTGTGGCAGCGGCAG, the remaining target (mRNA or protein) (fraction of control) came out at 0.47.
Take TTGGGCTCAGGGCAGTGT: the remaining target (mRNA or protein) (fraction of control) was at least 1.
On to GTGGAACTGGGCACGGGA, for which the remaining target (mRNA or protein) (fraction of control) is 0.96.
CTCAGGGCAGTGTGGCAG came in with a remaining target (mRNA or protein) (fraction of control) of 0.39.
GCCTGGACAGTCATTGTA gave a remaining target (mRNA or protein) (fraction of control) of at least 1.
The sequence TGCCTTAGGACAGTTCAG returned a remaining target (mRNA or protein) (fraction of control) of 0.8.
On the same count and under the same terms, next, GACCCATTTCCTTTCGGC: 0.74.
Same read-out and setting: next, TCGTGGTCGCTCAGCCCT: 0.72.
CAGGAGCACCAGCGGCAG gave a remaining target (mRNA or protein) (fraction of control) of 0.54.
In turn, CCGTTGGTAGCGATACAT gave a remaining target (mRNA or protein) (fraction of control) of 0.7.
Consider GGTTTTCTGAAGCGGTGA, for which the remaining target (mRNA or protein) (fraction of control) was found to be 0.83.
CCATTGAGGCAGAGGCTG: the remaining target (mRNA or protein) (fraction of control) came to 0.52.
The same measure, in the same setting: the figure for CGCAAAGTTGGGACAGTC is 0.7; for GCAGCAGCAGGTCAGGCA it is 0.63.
Regarding CTACAGGAGACACACTCG, the remaining target (mRNA or protein) (fraction of control) is 0.72.
Consider AGCCGCTCTCACACTCCC, for which the remaining target (mRNA or protein) (fraction of control) was found to be 0.64.
GTCCAGGCAGAGGGCACA gave a remaining target (mRNA or protein) (fraction of control) of 0.79.
GGACTGAAGCCCAGGGTG: the remaining target (mRNA or protein) (fraction of control) came to 0.88.
CAATGAAGAGGAGGGATA showed a remaining target (mRNA or protein) (fraction of control) of 0.79.
For the sequence AGTAGGTTCCTTTGTGGC, the remaining target (mRNA or protein) (fraction of control) was 0.54.
Still for that read-out and setting: the figure for GGTTGAGACTCGGGCATA is 0.6; for CTCAGGGACGAACCAGGG it is 0.97.
ACAGTTGAGGGTTGAGAC: the remaining target (mRNA or protein) (fraction of control) amounted to 0.7.
For AGGGCAGTGTGGCAGCGG, the remaining target (mRNA or protein) (fraction of control) was 0.47.
As to CCGCCTCCAGGTCGCCAG, the remaining target (mRNA or protein) (fraction of control) is at least 1.
In turn, CTTAGTAGTAGTTCCTTC showed a remaining target (mRNA or protein) (fraction of control) of 0.85.
For the sequence CAAAGACCAAAGAAAATG, the remaining target (mRNA or protein) (fraction of control) stood at 0.71.
Same read-out and setting: next, AGACTCGGGCATAGAGAT: at least 1; ACAAAACAAAACAAAACA: 0.73.
Same read-out and setting: the figure for GTGCCACCTCTCTGCGGG is at least 1.
Still for that read-out and setting: next, GCAGCCCAGCAGGTCCAT: 0.68; TGAGGGTTGAGACTCGGG: 0.98.
ATCCTCGCAAACCACCCA gave a remaining target (mRNA or protein) (fraction of control) of 0.71.
The sequence AGGCTCTGTGGCTTGTGG returned a remaining target (mRNA or protein) (fraction of control) of 0.53.
On the same count and under the same terms, the figure for AGGCAGTGTCTGAGGTGG is at least 1.

Source of the values: the OligoGym collection.
